Laboratory results from US10183011B2, “Anti-depression compounds” (Board of Regents of the University of Texas System, priority 2009, dated 2019).

What was measured:
HeLa cells = test: Toxicity to HeLa cells; type: cell-based
R6/2 transgenic mice = test: R6/2 model of Huntington's disease; type: in vivo, mouse
Method: FIG. 26A and FIG. 26B. Example 45 Compound (P7C3) Provides Therapeutic Benefit in Animal Model of Huntington's Disease. 40 female R6/2 mice were included in each of VEH (vehicle) and P7C3 (10 mg/kg P7C3 i.p. twice daily) groups, and treatment was begun at 6 weeks of age. […] All measurements were conducted blind to genotype and treatment group.
In one hypothesis, P7C3 (and its derivates) may enhance the formation of neurons in the mature hippocampus by preventing death rather than promoting proliferation of these cells. As such, P7C3 is “proneurogenic” by virtue of its neuroprotective activity. It is also possible that P7C3 (and its derivates) prevents cell death and promotes cell proliferation. It was evaluated whether P7C3 might provide therapeutic benefit in R6/2 mice. […] General condition score was determined by a 3 point scoring system that was conducted blind to genotype and treatment group (score of 0=fur looks groomed, normal posture (no hunch), clear eyes, alert; score of 1=fur beginning to stick up, slight hunch; score of 2=piloerection (fur sticking up), unkempt fur, hunch in back or neck area, crusty eyes). Death was monitored twice daily, and defined as either when animals were found dead, or when they were unable to right themselves after being placed on their backs with movement subsequently initiated by gentle prodding for 30 seconds. […]

[1] = test system: newborn cells in the dentate gyrus; test: Chronic social defeat stress (CSDS): DG cellular proliferation (BrdU) and apoptosis (AC3); type: in vivo, mouse (Ghsr-null and wild-type)
From the text: FIG. 40. Effects of P7C3 on DG cellular proliferation and apoptosis following CSDS. (a) Protocol schematic. (b-e) BrdU-immunoreactive and AC3-immunoreactive cell counts in the dorsal and ventral DG of CSDS-exposed and non-CSDS-exposed mice treated with P7C3 vs. vehicle. Group sizes indicated. (f-k) Representative photomicrograph images of double-immunolabeled (BrdU and AC3) ventral DG sections. (l-q) Magnified images of immunoreactive cells (AC3, leftward-facing arrow; BrdU, rightward-facing arrow). Scale bar in (k; 100 μm) pertains to (f-k), in (q; 25 μm) pertains to (l-q). *P<0.05, **P<0.01, ***P<0.001, as compared to respective non-CSDS-exposed, vehicle-treated control group.
It was next investigated whether protecting neural precursor cells from CSDS-associated apoptosis might help protect against the depressive-like phenotype. To test this idea, P7C3 was utilized, a neuroprotective aminopropyl carbazole that elevates hippocampal neurogenesis by blocking apoptosis without affecting the proliferation rate of hippocampal neural precursor cells in the dentate gyrus. A twice-daily schedule of intraperitoneal P7C3 injections (20 mg/kg/d in divided doses) was initiated two days prior to CSDS and continued throughout the 10 day procedure for both wild-type and Ghsr-null littermates. […]
CSDS was performed similar to methods used previously in the lab (J. C. Chuang et al., Ghrelin mediates stress-induced food-reward behavior in mice. J Clin Invest 121, 2684 (2011)). […] Ethovision 3.0 software (Noldus, Leesburg, Va.) measured the duration spent in the interaction zone or in the corners. […]
Immunohistochemistry and quantification were performed as described previously (J. C. Chuang et al., Ghrelin mediates stress-induced food-reward behavior in mice. J Clin Invest 121, 2684 (2011); J. E. Malberg et al., Chronic antidepressant treatment increases neurogenesis in adult rat hippocampus. J Neurosci 20, 9104 (2000); A. A. Pieper et al., Discovery of a proneurogenic, neuroprotective chemical. Cell 142, 39 (2010)). […]

Q: Which “toxicity to HeLa cells” value (HeLa cells) does the source give for `COc1cccc(NCC(F)Cn2c3ccc(Br)cc3c3cc(Br)ccc32)c1` (stereo not drawn) [Example P7C3A20, N-(3-(3,6-dibromo-9H-carbazol-9-yl)-2-fluoropropyl)-3-methoxyaniline] here?
A: The value was “no hERG channel binding, histamine receptor binding or toxicity to HeLa cells”.

Q: With `OC(CNc1ccccc1)Cn1c2ccc(Br)cc2c2cc(Br)ccc21` (stereo not drawn) [Example P7C3] as the molecule, how does the “survival of R6/2 mice” value (R6/2 transgenic mice; 10 mg/kg i.p. twice daily from 6 weeks of age) read?
A: Its value is “delays animal death by about three weeks”.

Q: And the general condition score (R6/2 transgenic mice; at 14 weeks of age)?
A: Its general condition score is “improved general condition score and appearance”.

Q: And the “AC3+ cells in the ventral DG after CSDS” value ([1]; 20 mg/kg/d i.p. in divided doses)?
A: Its value is “blocked by P7C3 administration”.

Q: What about the “BrdU+ cells in the DG after CSDS” value ([1]; 20 mg/kg/d i.p. in divided doses, wild type and Ghsr-null mice) of the same molecule?
A: The value was “preserved normal levels of neurogenesis throughout both dorsal and ventral regions of the DG”.

Q: What about the “BrdU or AC3 immunoreactivity in the DG” value ([1]; non-stressed control animals) of the same molecule?
A: The value was “did not significantly augment BrdU or AC3 immunoreactivity”.
